Source: patent US5580982A, “Substituted 3-(aminoalkylamino)-1,2-benzisoxazoles and related compounds” (priority 1995, dated 1996)
Structures can show the parent of a compound that is named as a salt. Where two headings read alike, the source gives them in different places.

Columns and labels:
MAO-B = target: T1, MAO-B (Rattus norvegicus, UniProt P19643); experiment: Ex vivo monoamine oxidase inhibition assay, Type B; type: in vivo; conditions: po
T1 construct: the whole brain without cerebellum was dissected rapidly and frozen on dry ice; from tissue; host or cells: whole brain without cerebellum of orally dosed male Wistar rats, homogenate
T1 sequence (P19643 1-520): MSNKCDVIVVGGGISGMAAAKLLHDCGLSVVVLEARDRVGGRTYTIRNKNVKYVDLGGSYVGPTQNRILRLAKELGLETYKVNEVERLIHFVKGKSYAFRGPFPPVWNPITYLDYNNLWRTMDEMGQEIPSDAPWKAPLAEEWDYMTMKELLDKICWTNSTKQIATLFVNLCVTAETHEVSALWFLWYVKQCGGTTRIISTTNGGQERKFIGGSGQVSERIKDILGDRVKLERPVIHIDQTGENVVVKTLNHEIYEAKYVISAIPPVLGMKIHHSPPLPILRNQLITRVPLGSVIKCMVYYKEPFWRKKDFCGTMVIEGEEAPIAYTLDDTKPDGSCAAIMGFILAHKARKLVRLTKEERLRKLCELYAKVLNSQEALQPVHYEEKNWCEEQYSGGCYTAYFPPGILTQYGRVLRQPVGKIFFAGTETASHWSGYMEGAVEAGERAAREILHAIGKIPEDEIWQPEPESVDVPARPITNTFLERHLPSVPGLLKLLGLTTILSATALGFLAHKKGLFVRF
Protocol: (§1) The enzyme monoamine oxidase (MAO) exists in two catalytically distinguishable forms termed MAO-A and MAO-B. The ability of the compounds of the invention to inhibit MAO ex vivo in the rat was determined using a procedure adapted from the procedure set forth in The Journal of Pharmacology and Experimental Therapeutics, Vol. 248, No. 1, (1989), pp. 400-414.
(§2) The compound to be tested was administered to male Wistar rats orally. At specified times after administration the rats were decapitated and the whole brain without cerebellum was dissected rapidly and frozen on dry ice. The samples were stored at -80° C. until measurement of the MAO activity. After thawing, the tissues were homogenized in 5 volumes of 0.1 mol/l of potassium-phosphate buffer, pH 7.4, using all glass homogenisers. MAO activity was determined essentially as described by Wurtman and Axelrod. Biochem. Pharmacol. 12: 1439-1441, (1963).
(§3) The enzyme reaction was started by addition of 80 μl of the MAO-A substrate [^3 H]-5-HT (0.96 mCi/mmol, final amine concentration is 200 μM or of the MAO-B substrate [^14 C]PEA (0.192 mCi/mmol, final amine concentration is 200 μM and the incubation continued for 10 minutes at 37° C. Then, the reaction was stopped by addition of 200 μl of 2N HCl, and the deaminated metabolites were extracted by vigorous shaking for 10 minutes with 5 ml of diethylether (5-HT-extraction) or n-heptane (PEA-extraction). After centrifugation (1000×g; 30 sec) the water-phase was frozen in dry ice and the organic layer poured into plastic vials containing 5 ml of scintillation cocktail. Finally, the radioactivity was determined in a scintillation spectrometer. Reaction mixtures as described above but lacking the homogenate served as blanks.

MAO-A [1] = target: T2, MAO-A (Rattus norvegicus, UniProt P21396); experiment: Ex vivo monoamine oxidase inhibition assay, Type A; type: in vivo; conditions: po
T2 construct: the whole brain without cerebellum was dissected rapidly and frozen on dry ice; from tissue; host or cells: whole brain without cerebellum of orally dosed male Wistar rats, homogenate
T2 sequence (P21396 1-526): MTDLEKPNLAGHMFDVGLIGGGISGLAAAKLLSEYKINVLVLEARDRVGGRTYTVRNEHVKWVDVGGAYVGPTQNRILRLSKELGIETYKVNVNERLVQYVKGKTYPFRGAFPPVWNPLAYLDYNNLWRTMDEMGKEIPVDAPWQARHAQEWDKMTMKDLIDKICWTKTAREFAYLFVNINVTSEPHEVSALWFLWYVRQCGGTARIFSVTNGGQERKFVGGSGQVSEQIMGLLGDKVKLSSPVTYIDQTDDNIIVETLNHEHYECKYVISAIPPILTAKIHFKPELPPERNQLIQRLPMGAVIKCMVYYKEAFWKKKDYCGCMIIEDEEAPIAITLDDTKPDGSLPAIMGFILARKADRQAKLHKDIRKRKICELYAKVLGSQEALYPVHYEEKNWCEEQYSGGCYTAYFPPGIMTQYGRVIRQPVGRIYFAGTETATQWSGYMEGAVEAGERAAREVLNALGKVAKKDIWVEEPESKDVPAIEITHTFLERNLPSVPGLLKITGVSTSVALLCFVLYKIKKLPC
Protocol: as §1, §2, §3

Brain AChE = target: T3, Brain AChE (Rattus norvegicus, UniProt P37136); experiment: In vitro inhibition of acetylcholinesterase activity in rat striatum; type: biochemical
T3 construct: corpora striata dissected free, weighed and homogenized in 19 volumes; from tissue; host or cells: corpora striata of male Wistar rats, whole homogenate
T3 sequence (P37136 32-614): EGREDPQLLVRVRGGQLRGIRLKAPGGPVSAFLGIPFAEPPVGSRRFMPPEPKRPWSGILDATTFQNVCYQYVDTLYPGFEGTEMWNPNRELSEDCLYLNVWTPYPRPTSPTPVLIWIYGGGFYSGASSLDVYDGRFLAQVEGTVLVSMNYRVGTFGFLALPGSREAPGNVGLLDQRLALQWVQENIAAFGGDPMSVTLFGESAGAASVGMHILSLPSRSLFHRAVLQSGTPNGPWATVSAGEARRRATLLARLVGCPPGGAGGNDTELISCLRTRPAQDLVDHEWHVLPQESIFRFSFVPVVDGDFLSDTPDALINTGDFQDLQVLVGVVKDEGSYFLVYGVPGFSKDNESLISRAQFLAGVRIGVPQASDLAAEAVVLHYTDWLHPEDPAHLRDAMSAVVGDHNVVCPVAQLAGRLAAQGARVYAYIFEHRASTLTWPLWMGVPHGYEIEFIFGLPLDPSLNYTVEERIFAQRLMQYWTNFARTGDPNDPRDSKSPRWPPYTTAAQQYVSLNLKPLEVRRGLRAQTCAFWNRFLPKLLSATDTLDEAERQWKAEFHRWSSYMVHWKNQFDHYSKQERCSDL
Protocol: In Vitro Inhibition of Acetylcholinesterase Activity in Rat Striatum
The method described below was used in this invention for assaying cholinesterase activity. This is a modification of the method of Ellman et al., Biochem. Pharmacol. 7, 88 (1961).
4. A 2 mM stock solution of the test drug is made up in a suitable solvent and brought to volume with 0.5 mM DTNB (reagent 3).
Drugs are serially diluted (1:10) such that the final concentration (in cuvette) is 10^-4 M and screened for activity. If active, IC50 values are determined from the inhibitory activity of subsequent concentrations.
Male Wistar rats are decapitated, brains rapidly removed, corpora striata dissected free, weighed and homogenized in 19 volumes (approximately 7 mg protein/ml) of 0.05M phosphate buffer, pH 7.2 using a Potter-Elvehjem homogenizer. A 25 microliter aliquot of the homogenate is added to 1.0 milliter vehicle or various concentrations of the test drug and preincubated for 10 minutes at 37° C.
Enzyme activity is measured with the Beckman DU-50 spectrophotometer. This method can be used for IC50 determinations and for measuring kinetic constants.
Reagents are added to the blank and sample cuvettes as follows:
Blank values are determined for each run to control for non-enzymatic hydrolysis of substrate and these values are automatically subtracted by the kindata program available on kinetics soft-pac module. This program also calculates the rate of absorbance change for each cuvette.
Substrate concentration is 10 mM diluted 1:2 in assay yielding final concentration of 5 mM. DTNB concentration is 0.5 mM yielding 0.25 mM final concentration. [formula] IC50 values are calculated from log-probit analysis.

monoamine oxidase = conditions: literature reference (2); cited from earlier work
MAO-A [2] = target: T2, MAO-A; experiment: Inhibition of Type A monoamine oxidase activity in rat brain synaptosomes; type: biochemical; conditions: substrate [^3 H]-5HT 200 μM; read-out: Inhibitory Concentration - IC50 MAO-A
Protocol: Inhibition of Type A and Type B Monoamine Oxidase Activity in Rat Brain Synaptosomes
To determine the selective inhibition of the two forms of monoamine oxidase (MAO).
Although various methods for measuring MAO activity are available, the described method involves the extraction of the radiolabeled deaminated metabolites of [^3 H]-5HT or [^14 C]-β-phenethylamine. This procedure allows MAO-A and MAO-B activities to be measured either simultaneously or individually (3).
c. Add 12 μl of [^3 H]-5HT to 2 ml of the 5 mM 5HT solution. (Final amine concentration in the assay is 200 μM: see below.)
5. Equal amounts of MAO-A (5HT) and MAO-B (PEA) substrates are combined for simultaneously testing both MAO types, i.e. mixed stock solution of 2.5 mM 5HT and 2.5 mM PEA, 40 μl of this mixed solution gives a 200 μM final concentration of each amine in the assay. When testing only one MAO type, the individual 5 mM stock solutions must be diluted 1:1 with distilled water prior to adding 40 μl to the incubation mixture; i.e., same 200 μM final amine concentration.
Male Wistar rats weighing 150-250 grams were sacrificed and the brains rapidly removed. Whole brain minus cerebellum was homogenized in 30 volumes of ice-cold, phosphate-buffered 0.25M sucrose, using a Potter-Elvejhem homogenizer. The homogenate was centrifuged at 1000 g for 10 minutes and the supernatant (S1) decanted and recentrifuged at 18,000 g for 20 minutes. The resulting pellet (P2) was resuspended in fresh 0.25M sucrose and served as the tissue source for mitochondrial MAO.
Tubes are preincubated for 15 minutes at 37° C. and the assay is started by adding 40 μl of combined substrate ([^3 H]-5HT and [^14 C]-PEA) at 15 second intervals. The tubes are incubated for 30 minutes at 37° C. and the reaction stopped by the addition of 0.3 ml 2N HCl. Tissue blank values are determined by adding the acid before the radioactive substrate. The oxidative products of the reaction are extracted with ethyl acetate/toluene (1:1). 5 ml of this mixture is added to the tubes. The resultant mixture is vortexed for 15 seconds to extract the deaminated metabolites into the organic phase and the latter is allowed to separate from the aqueous phase. The tubes are placed in acetone/dry ice bath to freeze the aqueous layer. When this layer is frozen, the top organic layer is poured into a scintillation vial. 10 ml of Liquiscint is added and the samples are counted using window settings for ^14 C in one channel and ^3 H in the second channel. IC50 values are determined by log-probit analysis.

[3] = 50 mg/kg, p.o., 0.5 h, read-out: Ex vivo inhibition (%) of monoamine oxidase Type B
[4] = 50 mg/kg, p.o., 1.0 h, read-out: Ex vivo inhibition (%) of monoamine oxidase Type B
[5] = 50 mg/kg, p.o., 4.0 h, read-out: Ex vivo inhibition (%) of monoamine oxidase Type B
[6] = 50 mg/kg, p.o., 24.0 h, read-out: Ex vivo inhibition (%) of monoamine oxidase Type B
[7] = 50 mg/kg, p.o., 0.5 h, read-out: Ex vivo inhibition (%) of monoamine oxidase Type A
[8] = 50 mg/kg, p.o., 1.0 h, read-out: Ex vivo inhibition (%) of monoamine oxidase Type A
[9] = 50 mg/kg, p.o., 4.0 h, read-out: Ex vivo inhibition (%) of monoamine oxidase Type A
[10] = 50 mg/kg, p.o., 24.0 h, read-out: Ex vivo inhibition (%) of monoamine oxidase Type A
[11] = rat striatum homogenate, pH 7.2, read-out: Inhibitory Concentration IC50 Brain AChE

CN(CCN1CCOCC1)c1noc2ccccc12 [N-methyI-N-[2-(4-morpholinyl)ethyl]-1,2-benzisoxazol-3-amine]
inhibition at 50 mg/kg (MAO-B; [3]): 32%
inhibition at 50 mg/kg (MAO-B; [4]): 25%
inhibition at 50 mg/kg (MAO-B; [5]): 36%
inhibition at 50 mg/kg (MAO-B; [6]): 0%
inhibition at 50 mg/kg (MAO-A [1]; [7]): 78%
inhibition at 50 mg/kg (MAO-A [1]; [8]): 66%
inhibition at 50 mg/kg (MAO-A [1]; [9]): 76%
inhibition at 50 mg/kg (MAO-A [1]; [10]): 11%

COc1ccc2c(N(C)CCC3CCN(Cc4ccccc4)CC3)noc2c1 [6-Methoxy-N-methyl-N-[2-[4-(1-phenylmethyl)piperdinyl]ethyl]-1,2-benzisoxazol-3-amine sesquihydrochloride]
IC50 (Brain AChE; [11]): 4 µM

CC(C)NNC(=O)c1ccncc1 [iproniazid]
selectivity of monoamine oxidase inhibition (type A / type B) (monoamine oxidase): nonselective inhibitors

CN(C)C(=O)Oc1ccc2c(N3CCN(c4ccncc4)CC3)noc2c1 [3-[1-(4-Pyridyl)piperazinyl]-1,2-benzisoxazol-6-yl dimethylcarbamate]
IC50 (Brain AChE): 0.88 µM

COc1ccc2c(N3CCN(c4ccncc4)CC3)noc2c1Br [7-Bromo-6-methoxy-3-[1-(4-pyridyl)piperazinyl]-1,2-benzisoxazole]
IC50 (Brain AChE; [11]): 14 µM

c1ccc2c(NCCN3CCOCC3)noc2c1 [N-[2-(4-Morpholinyl)ethyl]-1,2-benzisoxazol-3-amine]
inhibition at 50 mg/kg (MAO-B; [3]): 52%
inhibition at 50 mg/kg (MAO-B; [4]): 45%
inhibition at 50 mg/kg (MAO-B; [5]): 33%
inhibition at 50 mg/kg (MAO-B; [6]): 0%
inhibition at 50 mg/kg (MAO-A [1]; [7]): 88%
inhibition at 50 mg/kg (MAO-A [1]; [8]): 85%
inhibition at 50 mg/kg (MAO-A [1]; [9]): 68%
inhibition at 50 mg/kg (MAO-A [1]; [10]): 3.5%

CNC(=O)Oc1ccc2c(N(C)CCN3CCOCC3)noc2c1 [3-[[2-(4-Morpholinyl)ethyl]methylamino]1,2-benzisoxazol-6-yl methylcarbamate]
inhibition at 50 mg/kg (MAO-B; read-out: Ex vivo inhibition (%) of monoamine oxidase Type B, 50 mg/kg, p.o., 0.5 h): 19%
inhibition at 50 mg/kg (MAO-B; read-out: Ex vivo inhibition (%) of monoamine oxidase Type B, 50 mg/kg, p.o., 1.0 h): 19%
inhibition at 50 mg/kg (MAO-B; read-out: Ex vivo inhibition (%) of monoamine oxidase Type B, 50 mg/kg, p.o., 4.0 h): 28%
inhibition at 50 mg/kg (MAO-B; read-out: Ex vivo inhibition (%) of monoamine oxidase Type B, 50 mg/kg, p.o., 24.0 h): 12%
IC50 (Brain AChE): 13 µM
inhibition at 50 mg/kg (MAO-A [1]; read-out: Ex vivo inhibition (%) of monoamine oxidase Type A, 50 mg/kg, p.o., 0.5 h): 26%
inhibition at 50 mg/kg (MAO-A [1]; read-out: Ex vivo inhibition (%) of monoamine oxidase Type A, 50 mg/kg, p.o., 1.0 h): 29%
inhibition at 50 mg/kg (MAO-A [1]; read-out: Ex vivo inhibition (%) of monoamine oxidase Type A, 50 mg/kg, p.o., 4.0 h): 42%
inhibition at 50 mg/kg (MAO-A [1]; read-out: Ex vivo inhibition (%) of monoamine oxidase Type A, 50 mg/kg, p.o., 24.0 h): 14%

CNCCNc1noc2cc(OC)ccc12 [6-Methoxy-N-[2-(methylamino)ethyl)-1,2-benzisoxazol-3-amine]
IC50 (MAO-A [2]): 25 µM

C#CCN(C)Cc1ccccc1 [pargyline]
selectivity of monoamine oxidase inhibition (type A / type B) (monoamine oxidase): selective inhibitors of the type B enzyme

C#CCN(C)C(C)Cc1ccccc1 (stereo not drawn) [deprenyl]
selectivity of monoamine oxidase inhibition (type A / type B) (monoamine oxidase): selective inhibitors of the type B enzyme

N[C@@H]1C[C@H]1c1ccccc1 (relative stereo) [tranylcypromine]
selectivity of monoamine oxidase inhibition (type A / type B) (monoamine oxidase): nonselective inhibitors

CN(C)C(=O)Oc1ccc2c(N(C)CCN3CCOCC3)noc2c1Br [7-Bromo-3-[N-methyl, N,2-(4-morpholinyl)ethyl]amino-1,2-benzisoxazol-6-yl dimethylcarbamate]
IC50 (Brain AChE): 2 µM

COc1cc(Br)c2oc(C3CCNCC3)cc2c1 [Brofaromine, reference compound]
IC50 (MAO-A [2]): 0.18 µM

C#CCN(C)CCCOc1ccc(Cl)cc1Cl [Clorgyline]
selectivity of monoamine oxidase inhibition (type A / type B) (monoamine oxidase): selective inhibitor of the type A enzyme
